In patent publication US11040038B2, “Methods for treating diseases associated with abnormal ACVR1 expression and ACVR1 inhibitors for use in the same” (Sumitomo Dainippon Pharma Oncology, Inc., priority 2018, dated 2021):
Values after ≈ are worked out from the molar mass of the structure shown. Read-outs that look alike come from different tables or passages of the source.

Columns and labels:
Type in all cases: physicochemical
[1] = Hygroscopicity by DVS at 25° C.; conditions: for Hygroscopicity (%), water uptake: 25° C./80% RH
Procedure: A DVS isotherm plot was collected at 25° C. to investigate the solid form stability as a function of humidity. All the anhydrous samples were pre-equilibrated at 0% RH to remove the unbounded solvent or water before getting started. As evidenced by the water uptake of […] up to 80% RH, freebase Form A and both two salt forms were slightly hygroscopic, and no solid form change was observed after DVS evaluation (FIGS. 20A, 20B, 20C, 20D, 20E, and 20F).
Dynamic Vapor Sorption (DVS) was measured via a SMS (Surface Measurement Systems) DVS Intrinsic. The relative humidity at 25° C. were calibrated against deliquescence point of LiCl, Mg(NO3)2 and KCl.

[2] = Kinetic solubility in pH 2, 5 and 7 buffers at RT; conditions: for S: solubility / pH: final pH of supernatant / FC: solid form change / solubility at 1 h / solubility at 2 h / solubility at 4 h / solubility at 24 h: RT; for solubility at 1 h / solubility at 2 h / solubility at 4 h / solubility at 24 h: 19 °C, aqueous buffer, thermodynamic from solid, read-out: S: solubility
Procedure: Kinetic solubility of two salt leads was measured in pH 2, 5, and 7 buffers to evaluate their solubility and disproportionation risk, using freebase Form A (812608-05-A) as control. […] After centrifugation, supernatants were collected for HPLC and pH tests, and wet cakes were collected for XRPD characterization. If clear solutions were obtained, accurate concentration was measured for the solutions.
Agilent 1100/1260 HPLC was utilized and detailed chromatographic conditions for purity and solubility measurement are listed in Table 39.

[3] = Solid-state stability under 40° C./75% RH for one week; conditions: for Solid-state Stability: 40° C./75% RH for at least one week; for FC: form change based on XRPD results / Purity vs. Initial (%): 40° C./75% RH; for FC: form change based on XRPD results / Purity vs. Initial (%) / Purity (area %): one week; for Purity (area %): after 40° C./75% RH, HPLC
Procedure: Solid-state stability of freebase Form A, HCl salt Form A and fumarate Form A was evaluated under 40° C./75% RH for one week. Stability samples were characterized by XRPD to check any solid form change and by HPLC to check purity change.

[4] = Approximate solubility of freebase in 12 solvents at RT; conditions: thermodynamic from solid
Procedure: Approximate solubility of freebase Form A (812608-05-A) was measured in 12 solvents at RT. For each experiment, approximately 2 mg of sample was added into a 3 mL glass vial. Solvents in Table 35 were then added step wise (50, 50, 200, 200, 500 μL) into the vials until the solids were dissolved visually or a total volume of 1 mL was reached. Solubility results summarized in Table 35 were used to guide the solvent selection in salt screening design.

[5] = Estimated pKa values; conditions: method not stated

Compound: COc1cc(Nc2nccc(Nc3cccnc3-c3ccccn3)n2)ccc1N1CCN(C)CC1.Cl [HCl Salt Form A, N^4-(2,2′-bipyridin-3-yl)-N^2-(3-methoxy-4-(4-methylpiperazin-1-yl)phenyl)pyrimidine-2,4-diamine anhydrous hydrochloric acid salt]
- Water uptake ([1]; 25° C., 95% RH): 1.40%
- Hygroscopicity (%), water uptake [1]: (0.86) %
- Kinetic Solubility compared with freebase Form A ([2]; pH 2, 5 and 7 buffers): showed increased solubility in pH 2, 5 and 7 buffers;
- S: solubility ([2]; pH 2 buffer, 1 hr): 13400 µg/mL
- pH: final pH of supernatant ([2]; pH 2 buffer, 1 hr): 5.5
- S: solubility ([2]; pH 2 buffer, 2 hrs): 13300 µg/mL
- pH: final pH of supernatant ([2]; pH 2 buffer, 2 hrs): 5.6
- S: solubility ([2]; pH 2 buffer, 4 hrs): 13200 µg/mL
- pH: final pH of supernatant ([2]; pH 2 buffer, 4 hrs): 5.6
- S: solubility ([2]; pH 2 buffer, 24 hrs): 11800 µg/mL
- pH: final pH of supernatant ([2]; pH 2 buffer, 24 hrs): 5.6
- S: solubility ([2]; pH 5 buffer, 1 hr): 13200 µg/mL
- pH: final pH of supernatant ([2]; pH 5 buffer, 1 hr): 5.7
- S: solubility ([2]; pH 5 buffer, 2 hrs): 13000 µg/mL
- pH: final pH of supernatant ([2]; pH 5 buffer, 2 hrs): 5.7
- S: solubility ([2]; pH 5 buffer, 4 hrs): 13000 µg/mL
- pH: final pH of supernatant ([2]; pH 5 buffer, 4 hrs): 5.7
- S: solubility ([2]; pH 5 buffer, 24 hrs): 11600 µg/mL
- pH: final pH of supernatant ([2]; pH 5 buffer, 24 hrs): 5.7
- FC: solid form change ([2]; pH 7 buffer, 1 hr): Yes
- S: solubility ([2]; pH 7 buffer, 1 hr): 13500 µg/mL
- pH: final pH of supernatant ([2]; pH 7 buffer, 1 hr): 7.0
- FC: solid form change ([2]; pH 7 buffer, 2 hrs): Yes
- S: solubility ([2]; pH 7 buffer, 2 hrs): 9600 µg/mL
- pH: final pH of supernatant ([2]; pH 7 buffer, 2 hrs): 6.9
- FC: solid form change ([2]; pH 7 buffer, 4 hrs): Yes
- S: solubility ([2]; pH 7 buffer, 4 hrs): 9400 µg/mL
- pH: final pH of supernatant ([2]; pH 7 buffer, 4 hrs): 6.9
- FC: solid form change ([2]; pH 7 buffer, 24 hrs): Yes
- S: solubility ([2]; pH 7 buffer, 24 hrs): 210 µg/mL
- pH: final pH of supernatant ([2]; pH 7 buffer, 24 hrs): 6.4
- Solid-state Stability [3]: Good physicochemical properties under 40° C./75%
- FC: form change based on XRPD results [3]: No
- Purity vs. Initial (%) [3]: 99.9%
- Purity (area %) [3]: 99.54 area %

Compound: COc1cc(Nc2nccc(Nc3cccnc3-c3ccccn3)n2)ccc1N1CCN(C)CC1 [Freebase Form A, N^4-(2,2′-bipyridin-3-yl)-N^2-(3-methoxy-4-(4-methylpiperazin-1-yl)phenyl)pyrimidine-2,4-diamine]
- Hygroscopicity (%), water uptake [1]: (0.60) %
- solubility at 1 h ([2]; pH 2 buffer, 1 hr): 4300 µg/mL (≈ 9.18 mM)
- solubility at 2 h ([2]; pH 2 buffer, 2 hrs): 4100 µg/mL (≈ 8.75 mM)
- solubility at 4 h ([2]; pH 2 buffer, 4 hrs): 4100 µg/mL (≈ 8.75 mM)
- solubility at 24 h ([2]; pH 2 buffer, 24 hrs): 3200 µg/mL (≈ 6.83 mM)
- solubility at 1 h ([2]; pH 5 buffer, 1 hr): 7400 µg/mL (≈ 15.8 mM)
- solubility at 2 h ([2]; pH 5 buffer, 2 hrs): 7200 µg/mL (≈ 15.4 mM)
- solubility at 4 h ([2]; pH 5 buffer, 4 hrs): 6300 µg/mL (≈ 13.4 mM)
- solubility at 24 h ([2]; pH 5 buffer, 24 hrs): 6600 µg/mL (≈ 14.1 mM)
- solubility at 1 h ([2]; pH 7 buffer, 1 hr): 0.4 µg/mL (≈ 0.000854 mM)
- solubility at 2 h ([2]; pH 7 buffer, 2 hrs): 1 µg/mL (≈ 0.00213 mM)
- solubility at 4 h ([2]; pH 7 buffer, 4 hrs): 0.4 µg/mL (≈ 0.000854 mM)
- solubility at 24 h ([2]; pH 7 buffer, 24 hrs): 8.9 µg/mL (≈ 0.019 mM)
- FC: solid form change ([2]; pH 2 buffer, 1 hr): No
- pH: final pH of supernatant ([2]; pH 2 buffer, 1 hr): 6.2
- FC: solid form change ([2]; pH 2 buffer, 2 hrs): No
- pH: final pH of supernatant ([2]; pH 2 buffer, 2 hrs): 6.2
- FC: solid form change ([2]; pH 2 buffer, 4 hrs): No
- pH: final pH of supernatant ([2]; pH 2 buffer, 4 hrs): 6.2
- FC: solid form change ([2]; pH 2 buffer, 24 hrs): No
- pH: final pH of supernatant ([2]; pH 2 buffer, 24 hrs): 6.1
- FC: solid form change ([2]; pH 5 buffer, 1 hr): No*
- pH: final pH of supernatant ([2]; pH 5 buffer, 1 hr): 6.2
- FC: solid form change ([2]; pH 5 buffer, 2 hrs): No*
- pH: final pH of supernatant ([2]; pH 5 buffer, 2 hrs): 6.3
- FC: solid form change ([2]; pH 5 buffer, 4 hrs): No
- pH: final pH of supernatant ([2]; pH 5 buffer, 4 hrs): 6.4
- FC: solid form change ([2]; pH 5 buffer, 24 hrs): No
- pH: final pH of supernatant ([2]; pH 5 buffer, 24 hrs): 6.4
- FC: solid form change ([2]; pH 7 buffer, 1 hr): No
- pH: final pH of supernatant ([2]; pH 7 buffer, 1 hr): 7.0
- FC: solid form change ([2]; pH 7 buffer, 2 hrs): No
- pH: final pH of supernatant ([2]; pH 7 buffer, 2 hrs): 6.9
- FC: solid form change ([2]; pH 7 buffer, 4 hrs): No
- pH: final pH of supernatant ([2]; pH 7 buffer, 4 hrs): 7.0
- FC: solid form change ([2]; pH 7 buffer, 24 hrs): No
- pH: final pH of supernatant ([2]; pH 7 buffer, 24 hrs): 7.0
- Solid-state Stability [3]: Good physicochemical properties under 40° C./75%
- FC: form change based on XRPD results [3]: No
- Purity vs. Initial (%) [3]: 100.0%
- Purity (area %) [3]: 99.18 area %
- solubility ([4]; organic solvent or mixture, ACN): < 2000 µg/mL
- solubility ([4]; organic solvent or mixture, Acetone): < 2400 µg/mL
- solubility ([4]; organic solvent or mixture, EtOAc): < 2500 µg/mL
- solubility ([4]; organic solvent or mixture, EtOH): 2100 to 4200 µg/mL (≈ 4.48 to 8.96 mM)
- solubility ([4]; organic solvent or mixture, IPA): < 2400 µg/mL
- solubility ([4]; organic solvent or mixture, IPAc): < 2400 µg/mL
- solubility ([4]; organic solvent or mixture, MIBK): 1900 to 3800 µg/mL (≈ 4.05 to 8.11 mM)
- solubility ([4]; organic solvent or mixture, MeOH): 2400 to 4800 µg/mL (≈ 5.12 to 10.2 mM)
- solubility ([4]; organic solvent or mixture, THF): 3600 to 6000 µg/mL (≈ 7.68 to 12.8 mM)
- solubility ([4]; organic solvent or mixture, Toluene): 2000 to 4000 µg/mL (≈ 4.27 to 8.54 mM)
- solubility ([4]; organic solvent or mixture, n-Heptane): < 2100 µg/mL
- solubility ([4]; water, H2O): < 1900 µg/mL
- pKa [5]: 7.5
